Data: the supplement of paper PMC10331698
± gives the standard deviation of the averaged measurements.

Tests used:
Assay in all cases: level (log10 ratio to DMSO vehicle control); higher = higher biomarker level / cell amount than vehicle control
[1] = compound: OCCCC(F)(F)C(F)(F)C(F)(F)C(F)(F)C(F)(F)C(F)(F)C(F)(F)F [7:3 Fluorotelomer alcohol]; conditions: 6700 nM; in DMSO
Procedure: (§1)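 BioMAP Diversity Plus panel of 12 human primary cell co-culture systems (3C, 4H, LPS, SAg, BT, BF4T, BE3C, CASM3C, HDF3CGF, KF3CT, MyoF, Mphg). Compounds were added 1 h before stimulation and left for 24 h (MyoF 48 h; BT 72 h for soluble read-outs or 6 d for IgG). Biomarkers were read by ELISA, cytotoxicity by SRB, PBMC viability and proliferation by Alamar Blue. Each well value was divided by the mean of 8 DMSO control wells on the same plate and log10 transformed; duplicate blinded samples were tested at 4 concentrations.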

[2] = compound: C=C(C)C(=O)OCCC(F)(F)C(F)(F)C(F)(F)C(F)(F)C(F)(C(F)(F)F)C(F)(F)F [(Perfluoro-5-methylhexyl)ethyl 2-methylprop-2-enoate]; conditions: in DMSO
Procedure: as §1

[3] = compound: O=S(=O)(O)C(F)(F)C(F)(F)C(F)(F)C(F)(F)C(F)(F)C(F)(F)F [Perfluorohexanesulfonic acid]; conditions: in DMSO
Procedure: as §1

[4] = compound: FC(F)C(F)(F)COCC1CO1 [((2,2,3,3-Tetrafluoropropoxy)methyl)oxirane]; conditions: in DMSO
Procedure: as §1

[5] = compound: O=C(O)C(F)(F)C(F)(F)C(F)(F)C(F)(F)C(F)(F)C(F)(F)C(F)(F)C(F)F [9-H-Perfluorononanoic acid]; conditions: in DMSO
Procedure: as §1

[6] = compound: C=CC(=O)OCC(F)(F)C(F)(F)C(F)(F)C(F)(F)C(F)(F)C(F)(F)C(F)(F)F [1H,1H-Perfluorooctyl acrylate]; conditions: in DMSO
Procedure: as §1

[7] = compound: O=C(O)C(F)(F)C(F)(F)C(F)F [4H-Perfluorobutanoic acid]; conditions: in DMSO
Procedure: as §1

| Test System | level (log10) [1] | level (log10) ([2]; 6700 nM) | level (log10) ([2]; 20000 nM) | level (log10) ([3]; 6700 nM) | level (log10) ([3]; 20000 nM) | level (log10) ([3]; 60000 nM) | level (log10) ([4]; 6700 nM) | level (log10) ([4]; 20000 nM) | level (log10) ([4]; 60000 nM) | level (log10) ([5]; 6700 nM) | level (log10) ([5]; 20000 nM) | level (log10) ([5]; 60000 nM) | level (log10) ([6]; 6700 nM) | level (log10) ([6]; 20000 nM) | level (log10) ([6]; 60000 nM) | level (log10) ([7]; 6700 nM) | level (log10) ([7]; 20000 nM) | level (log10) ([7]; 60000 nM) |
| --- | --- | --- | --- | --- | --- | --- | --- | --- | --- | --- | --- | --- | --- | --- | --- | --- | --- | --- |
| 3C:CD106/VCAM-1 | 0.005 ± 0.0057 | -0.032 ± 0.0099 | -0.012 ± 0.0085 | -0.0085 ± 0.026 | -0.029 ± 0.0042 | -0.014 ± 0.025 | -0.0005 ± 0.0092 | -0.0225 ± 0.023 | -0.0125 ± 0.011 | -0.025 ± 0.016 | -0.018 ± 0.035 | -0.0185 ± 0.04 | -0.0215 ± 0.023 | -0.0245 ± 0.021 | -0.012 ± 0.0028 | -0.0075 ± 0.04 | -0.0265 ± 0.005 | 0.006 ± 0.0028 |
| KF3CT:CXCL9/MIG | 0.0015 ± 0.005 | 0.018 ± 0.014 | 0.0215 ± 0.023 | 0.001 ± 0.021 | 0.002 ± 0.0071 | 0.013 ± 0.013 | 0.007 ± 0.0085 | -0.002 ± 0.0099 | 0.0055 ± 0.0078 | -0.008 ± 0.0042 | -0.009 ± 0.0028 | -0.0045 ± 0.00071 | 0.005 ± 0.0042 | -0.0035 ± 0.0035 | 0.008 ± 0.0099 | -0.004 ± 0.016 | -0.011 ± 0.011 | -0.007 ± 0.0071 |
| BE3C:tPA | -0.014 ± 0.025 | -0.0245 ± 0.00071 | -0.0325 ± 0.021 | -0.0105 ± 0.0064 | 0.0015 ± 0.0035 | 0.012 ± 0.0014 | -0.006 ± 0.031 | -0.015 ± 0.024 | -0.0165 ± 0.00071 | 0.075 ± 0.023 | 0.0285 ± 0.019 | 0.002 ± 0.025 | 0.005 ± 0.0028 | 0.0125 ± 0.00071 | 0.0605 ± 0.022 | -0.016 ± 0.0014 | -0.0305 ± 0.012 | -0.006 ± 0.016 |
| BE3C:MMP-1 | 0.016 ± 0.033 | 0.026 ± 0.0042 | 0.014 ± 0.0057 | 0.0075 ± 0.00071 | 0.0375 ± 0.018 | 0.227 ± 0.042 | -0.013 ± 0.02 | -0.0335 ± 0.019 | -0.0185 ± 0.0078 | 0.043 ± 0.045 | 0.061 ± 0.0028 | 0.204 ± 0.047 | -0.018 ± 0.016 | -0.0215 ± 0.0035 | 0.006 ± 0.0014 | -0.033 ± 0.059 | -0.0175 ± 0.0035 | 0.008 ± 0.051 |
| 3C:CD142/Tissue Factor | -0.007 ± 0.0057 | 0.0205 ± 0.015 | -0.0295 ± 0.046 | 0.014 ± 0.023 | 0.0105 ± 0.025 | 0.0545 ± 0.011 | -0.0175 ± 0.07 | -0.032 ± 0.05 | -0.036 ± 0.071 | 0.035 ± 0.0028 | 0.027 ± 0.0042 | 0.059 ± 0.023 | 0.001 ± 0.0057 | 0 ± 0.0014 | -0.0165 ± 0.0078 | -0.004 ± 0.0014 | -0.021 ± 0.0099 | 0.0105 ± 0.005 |
| BE3C:SRB | -0.0065 ± 0.0092 | 0.009 ± 0.0099 | 0.0065 ± 0.016 | -0.0035 ± 0.022 | -0.013 ± 0.0085 | -0.017 ± 0.011 | -0.0015 ± 0.005 | -0.001 ± 0.0014 | 0.0085 ± 0.023 | -0.0075 ± 0.0035 | -0.007 ± 0.0057 | -0.0105 ± 0.0035 | 0.0005 ± 0.0078 | -0.003 ± 0.0085 | 0.0085 ± 0.015 | -0.003 ± 0.0014 | -0.004 ± 0.0099 | 0.0025 ± 0.0021 |
| CASM3C:CXCL9/MIG | -0.0125 ± 0.0035 | 0.0335 ± 0.029 | 0.0445 ± 0.046 | 0.003 ± 0.0099 | 0.0045 ± 0.0064 | 0.012 ± 0.0014 | 0.002 ± 0.0085 | -0.009 ± 0.02 | 0.014 ± 0.062 | -0.024 ± 0.017 | -0.0155 ± 0.0092 | 0.0205 ± 0.00071 | 0.001 ± 0.0028 | -0.0015 ± 0.011 | 0.0005 ± 0.0035 | -0.0035 ± 0.028 | 0.0125 ± 0.00071 | 0.032 ± 0.017 |
| HDF3CGF:Collagen III | 0.0135 ± 0.044 | -0.0195 ± 0.05 | 0.0105 ± 0.05 | -0.0005 ± 0.022 | 0.0005 ± 0.015 | 0.0105 ± 0.043 | -0.002 ± 0.037 | -0.0115 ± 0.00071 | -0.0035 ± 0.011 | -0.047 ± 0.013 | -0.115 ± 0.013 | -0.155 ± 0.057 | 0.067 ± 0.035 | 0.042 ± 0.04 | -0.0245 ± 0.084 | -0.005 ± 0.088 | 0.03 ± 0.054 | 0.072 ± 0.042 |
| MyoF:CD106/VCAM-1 | -0.013 ± 0.011 | 0.0095 ± 0.0092 | -0.013 ± 0.0028 | 0.005 ± 0.018 | 0.003 ± 0.0042 | -0.0145 ± 0.023 | -0.0075 ± 0.0035 | -0.025 ± 0.031 | -0.011 ± 0.044 | -0.015 ± 0.02 | -0.0135 ± 0.005 | -0.0125 ± 0.025 | -0.011 ± 0.0042 | -0.0095 ± 0.0035 | -0.024 ± 0.0042 | -0.0065 ± 0.011 | -0.017 ± 0.0071 | 0.0135 ± 0.015 |
| HDF3CGF:CCL2/MCP-1 | -0.0085 ± 0.0092 | -0.0335 ± 0.0092 | -0.024 ± 0.023 | 0.009 ± 0.0057 | 0.007 ± 0.014 | 0.021 ± 0.031 | -0.0005 ± 0.0078 | -0.001 ± 0.013 | 0.0005 ± 0.0078 | -0.023 ± 0.028 | -0.0185 ± 0.044 | -0.0415 ± 0.052 | -0.0055 ± 0.018 | -0.0235 ± 0.021 | -0.046 ± 0.03 | -0.0385 ± 0.021 | -0.018 ± 0.051 | 0.049 ± 0.0071 |
| BE3C:MMP-9 | 0.0055 ± 0.026 | 0.0245 ± 0.039 | 0.022 ± 0.044 | 0.0095 ± 0.026 | 0.014 ± 0.0071 | 0.0275 ± 0.00071 | -0.0135 ± 0.015 | -0.03 ± 0.028 | -0.005 ± 0.0028 | 0.015 ± 0.02 | 0.0415 ± 0.00071 | 0.0255 ± 0.0021 | -0.0135 ± 0.025 | -0.013 ± 0.024 | -0.022 ± 0.018 | -0.0105 ± 0.019 | 0.02 ± 0.023 | -0.009 ± 0.02 |
| KF3CT:CD54/ICAM-1 | -0.022 ± 0.0071 | -0.01 ± 0.0042 | -0.0175 ± 0.0021 | -0.0165 ± 0.005 | -0.0165 ± 0.0078 | -0.013 ± 0.014 | -0.0065 ± 0.015 | -0.012 ± 0.0085 | -0.014 ± 0.016 | -0.0045 ± 0.016 | -0.024 ± 0.0014 | -0.0365 ± 0.0064 | -0.005 ± 0.016 | -0.0075 ± 0.005 | -0.0045 ± 0.0092 | 0.005 ± 0.0028 | -0.0115 ± 0.0035 | -0.006 ± 0.011 |
| lMphg:CD106/VCAM-1 | -0.009 ± 0.027 | -0.0315 ± 0.011 | -0.014 ± 0.0057 | -0.011 ± 0.044 | 0.0075 ± 0.0035 | 0.005 ± 0.011 | -0.016 ± 0.038 | -0.0155 ± 0.025 | -0.017 ± 0.017 | -0.008 ± 0.018 | 0.0185 ± 0.00071 | 0.0075 ± 0.023 | -0.0115 ± 0.022 | -0.001 ± 0.018 | -0.0145 ± 0.037 | 0.003 ± 0.0028 | 0.0125 ± 0.016 | 0.003 ± 0.014 |
| HDF3CGF:Collagen I | -0.0325 ± 0.046 | 0.0115 ± 0.067 | 0.034 ± 0.092 | 0.0085 ± 0.015 | 0.0185 ± 0.015 | 0.0555 ± 0.067 | -0.03 ± 0.0042 | -0.038 ± 0.013 | 0.022 ± 0.11 | -0.0315 ± 0.1 | 0.009 ± 0.096 | 0.015 ± 0.052 | -0.0065 ± 0.05 | 0.0415 ± 0.005 | 0.0675 ± 0.05 | -0.0445 ± 0.028 | -0.024 ± 0.072 | 0.0525 ± 0.029 |
| KF3CT:PAI-I | -0.017 ± 0.025 | -0.035 ± 0.047 | -0.05 ± 0.018 | -0.0105 ± 0.012 | -0.0325 ± 0.00071 | -0.0435 ± 0.0021 | 0.004 | -0.0085 ± 0.005 | -0.0015 ± 0.012 | -0.0045 ± 0.0035 | 0.007 ± 0.0071 | 0.003 ± 0.0085 | -0.0075 ± 0.00071 | -0.01 ± 0.013 | -0.0135 ± 0.018 | 0.0015 ± 0.022 | 0.046 ± 0.02 | -0.0075 ± 0.073 |
| lMphg:SRB-Mphg | -0.0015 ± 0.0021 | 0.0015 ± 0.011 | -0.0095 ± 0.021 | 0.0015 ± 0.074 | 0.013 ± 0.0071 | 0.0255 ± 0.018 | 0.0075 ± 0.016 | 0.021 ± 0.025 | 0.02 ± 0.033 | 0.0225 ± 0.018 | 0.043 ± 0.013 | 0.0175 ± 0.032 | -0.002 ± 0.011 | -0.0015 ± 0.0078 | 0.0045 ± 0.018 | -0.009 ± 0.075 | -0.015 ± 0.054 | 0 ± 0.027 |
